Reference: patent publication US20120022107A1, “2-(PIPERIDIN-1-YL)-4-AZOLYL-THIAZOLE-5-CARBOXYLIC ACID DERIVATIVES AGAINST BACTERIAL INFECTIONS” (ASTRAZENECA AB, priority 2008, published 2012)
Converted amounts (≈) assume the structure as drawn.

What was measured:
Msmeg = Msmeg (Mycolicibacterium smegmatis, UniProt A0QNE0); assay: Msmeg IC50; assay type: biochemical
M. tuberculosis = assay: MIC testing: Microplate Alamar Blue Assay; assay type: cell-based, Mycobacterium tuberculosis; conditions: Mycobacterium tuberculosis, lowest concentration preventing color change from blue to pink, read-out: Mtu MIC
Hinf = Hinf MIC; assay type: cell-based, Haemophilus influenzae; conditions: Haemophilus influenzae; read-out: Hinf_MIC
Sau = Sau MIC; assay type: cell-based, Staphylococcus aureus; conditions: Staphylococcus aureus; read-out: Sau_MIC
Spn = Spn MIC; assay type: cell-based, Streptococcus pneumoniae; conditions: Streptococcus pneumoniae; read-out: Spn_MIC

Msmeg, sequence (A0QNE0 whole entry): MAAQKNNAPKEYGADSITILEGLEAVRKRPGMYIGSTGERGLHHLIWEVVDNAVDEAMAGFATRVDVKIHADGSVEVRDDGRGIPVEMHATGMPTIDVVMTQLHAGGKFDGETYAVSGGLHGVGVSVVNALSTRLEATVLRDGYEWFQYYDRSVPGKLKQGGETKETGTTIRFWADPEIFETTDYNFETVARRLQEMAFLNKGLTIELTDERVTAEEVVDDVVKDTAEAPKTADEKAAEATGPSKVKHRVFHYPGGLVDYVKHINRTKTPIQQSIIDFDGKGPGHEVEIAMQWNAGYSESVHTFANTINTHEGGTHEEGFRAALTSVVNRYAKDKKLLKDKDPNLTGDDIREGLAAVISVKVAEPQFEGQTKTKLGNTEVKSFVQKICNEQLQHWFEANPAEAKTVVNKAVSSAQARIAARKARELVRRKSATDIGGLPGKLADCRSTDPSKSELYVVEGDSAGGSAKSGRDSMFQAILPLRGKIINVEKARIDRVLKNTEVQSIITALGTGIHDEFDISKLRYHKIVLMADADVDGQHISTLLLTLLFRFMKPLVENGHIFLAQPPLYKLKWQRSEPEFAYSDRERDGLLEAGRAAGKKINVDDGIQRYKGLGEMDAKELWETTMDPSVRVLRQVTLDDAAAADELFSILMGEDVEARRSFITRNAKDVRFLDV

CO[C@H]1CN(c2nc(-c3ncnn3C)c(C(=O)O)s2)CC[C@H]1NC(=O)c1[nH]c(C)c(Br)c1Cl [Example 2, 2-((3S,4R)-4-{[4-Bromo-3-chloro-5-methyl-1H-pyrrole-2-carbonyl]amino}-3-methoxypiperidin-1-yl)-4-(1-methyl-1H-1,2,4-triazol-5-yl)-1,3-thiazole-5-carboxylic acid]
IC50 (Msmeg): < 4 nM | MIC (M. tuberculosis): < 0.03 µg/mL | MIC (Hinf): 2.6 µg/mL (≈ 4.65 µM) | MIC (Sau): 0.1 µg/mL (≈ 0.179 µM) | MIC (Spn): 0.1 µg/mL (≈ 0.179 µM)

CO[C@H]1CN(c2nc(-c3ncnn3C)c(C(=O)O)s2)CC[C@H]1NC(=O)c1[nH]c(C)c(Br)c1C#N [Example 9, 2-{(3S,4R)-4-[(4-Bromo-3-cyano-5-methyl-1H-pyrrole-2-carbonyl)-amino]-3-methoxy-piperidin-1-yl}-4-(2-methyl-2H-[1,2,4]triazol-3-yl)-thiazole-5-carboxylic acid]
IC50 (Msmeg): 10 nM | MIC (M. tuberculosis): 0.015 µg/mL (≈ 0.0273 µM) | MIC (Hinf): 0.25 µg/mL (≈ 0.455 µM) | MIC (Sau): 0.25 µg/mL (≈ 0.455 µM) | MIC (Spn): 0.125 µg/mL (≈ 0.228 µM)
